Among the test systems are SF-539 CNS; U251 CNS; HL-60(TB) leukemia; RPMI-8226 leukemia; OVCAR-3 ovarian; TK-10 renal; UACC-257 melanoma; SK-MEL-2 melanoma; NCI-H522 lung; DMS 114 small cell lung; MOLT-4 leukemia; OVCAR-8 ovarian; NCI-H23 lung; SF-268 CNS; SK-MEL-5 melanoma; CAKI-1 renal; SF-295 CNS; SR leukemia.
Assay in all cases: DTP human tumour cell line panel, 48 h

Molecules are shown by their SMILES.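 A five-concentration, 48-hour dose response in 96-well plates underlies each endpoint, interpolated linearly between surrounding concentrations. TGI denotes the concentration required for complete inhibition of growth.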

On to `NC12CC3CC(C1)CC(Cl)(C3)C2`, for which the concentration for total growth inhibition (TGI) with SF-539 CNS, in the test with U251 CNS, with HL-60(TB) leukemia, in the test on RPMI-8226 leukemia, in the test on OVCAR-3 ovarian and in the test on TK-10 renal was greater than 100 µM each time. Also, the TGI in the test on UACC-257 melanoma, with SK-MEL-2 melanoma, with NCI-H522 lung, in the test on DMS 114 small cell lung, in the test on MOLT-4 leukemia and with OVCAR-8 ovarian was greater than 100 µM throughout. The compound also showed a TGI with NCI-H23 lung greater than 100 µM.
As for `CCOC(=O)c1nc2ccc(Cl)cc2c2c1CCO2`, the TGI in the test on SF-539 CNS, in the test with U251 CNS, in the test with HL-60(TB) leukemia, in the test on OVCAR-3 ovarian, in the test with TK-10 renal and in the test with SF-268 CNS was greater than 100 µM throughout. Moreover, the TGI with SK-MEL-5 melanoma, with UACC-257 melanoma, in the test with NCI-H522 lung, in the test on DMS 114 small cell lung, with CAKI-1 renal and in the test on MOLT-4 leukemia was greater than 100 µM in each case. Also, the TGI with OVCAR-8 ovarian, in the test on NCI-H23 lung and in the test with SF-295 CNS was greater than 100 µM each time.
Turning to `COC(=O)[C@H]1C=C[C@@H](C)n2c(=O)c3ccccc3c(=O)n21`, the TGI with SF-539 CNS, in the test on U251 CNS, with HL-60(TB) leukemia, in the test on RPMI-8226 leukemia, with OVCAR-3 ovarian and in the test with TK-10 renal was greater than 100 µM in each case. For the same compound, the TGI with SF-268 CNS, in the test with SK-MEL-5 melanoma, with UACC-257 melanoma, in the test on SK-MEL-2 melanoma, in the test with NCI-H522 lung and in the test on DMS 114 small cell lung was greater than 100 µM throughout. The TGI in the test with CAKI-1 renal, in the test with SR leukemia, with MOLT-4 leukemia, with OVCAR-8 ovarian, in the test with NCI-H23 lung and with SF-295 CNS was greater than 100 µM in each case.
For `CC(=O)c1c(O)ccc2c1CC(CC=O)O2` (configuration not stated), the concentration for total growth inhibition (TGI) with SF-539 CNS, in the test on U251 CNS, in the test on HL-60(TB) leukemia, in the test with RPMI-8226 leukemia, in the test with OVCAR-3 ovarian and with TK-10 renal was greater than 100 µM in each case. Moreover, the TGI in the test on SF-268 CNS was greater than 100 µM; in the test on SK-MEL-5 melanoma, greater than 100 µM; in the test with UACC-257 melanoma it was greater than 100 µM; in the test with NCI-H522 lung, greater than 100 µM; in the test with DMS 114 small cell lung, 55.1 µM; in the test with CAKI-1 renal it was greater than 100 µM. Further, the TGI in the test on SR leukemia, with MOLT-4 leukemia, in the test with OVCAR-8 ovarian, in the test on NCI-H23 lung and in the test on SF-295 CNS was greater than 100 µM in each case.
For the compound `NC(=O)C12C3C4C1C1C2C3C41C(N)=O` (configuration not stated), the TGI with SF-539 CNS, with U251 CNS, with HL-60(TB) leukemia, in the test with RPMI-8226 leukemia, with OVCAR-3 ovarian and in the test on TK-10 renal was greater than 100 µM in each case. Moreover, the TGI in the test on SF-268 CNS, in the test with SK-MEL-5 melanoma, in the test on UACC-257 melanoma, with SK-MEL-2 melanoma, in the test on NCI-H522 lung and with DMS 114 small cell lung was greater than 100 µM each time. Besides, the TGI with CAKI-1 renal, with MOLT-4 leukemia, in the test with OVCAR-8 ovarian, in the test on NCI-H23 lung and with SF-295 CNS was greater than 100 µM throughout.
On to `CN(C)CCCSc1c2ccccc2nc2cc(NCC(=O)Nc3ccccc3-c3ccccc3NC(=O)CNc3ccc4c(SCCCN(C)C)c5ccccc5nc4c3)ccc12`, for which the TGI is greater than 100 µM in the test on SF-539 CNS; greater than 100 µM in the test on U251 CNS; 50.3 µM in the test on HL-60(TB) leukemia; greater than 100 µM in the test with RPMI-8226 leukemia; greater than 100 µM in the test with OVCAR-3 ovarian; greater than 100 µM with TK-10 renal. For the same compound, the TGI in the test on SF-268 CNS, in the test with SK-MEL-5 melanoma, in the test on UACC-257 melanoma, in the test on SK-MEL-2 melanoma, with NCI-H522 lung and in the test on DMS 114 small cell lung was greater than 100 µM throughout. The total growth inhibition concentration (TGI) in the test with CAKI-1 renal, in the test on SR leukemia, with MOLT-4 leukemia, with OVCAR-8 ovarian, in the test on NCI-H23 lung and with SF-295 CNS was greater than 100 µM throughout.
Regarding `NC(=O)c1csc(CCCCCCc2nc(C(N)=O)cs2)n1`, the TGI was greater than 100 µM in the test on SF-539 CNS; greater than 65.1 µM in the test with U251 CNS; greater than 100 µM with HL-60(TB) leukemia; greater than 71.4 µM in the test on RPMI-8226 leukemia; greater than 100 µM in the test with OVCAR-3 ovarian; greater than 100 µM in the test with TK-10 renal. Besides, the TGI in the test on SF-268 CNS, in the test on SK-MEL-5 melanoma, in the test with UACC-257 melanoma, with SK-MEL-2 melanoma, in the test on NCI-H522 lung and in the test with DMS 114 small cell lung was greater than 100 µM throughout. Moreover, the TGI with CAKI-1 renal, in the test on SR leukemia, in the test on MOLT-4 leukemia, with OVCAR-8 ovarian, with NCI-H23 lung and in the test on SF-295 CNS was greater than 100 µM throughout.
Turning to `COC1=CC(C2c3cc4c(cc3[C@@H](Nc3ccc([N+](=O)[O-])cc3)C3COC(=O)[C@H]23)OCO4)=CC(=O)C1=O` (some centres not stated), the TGI with SF-539 CNS was 6.05 µM; with U251 CNS it was 4.75 µM; in the test with RPMI-8226 leukemia, greater than 100 µM; in the test with OVCAR-3 ovarian, 54.9 µM; in the test on TK-10 renal, 43 µM; in the test on SF-268 CNS, 12.6 µM. The TGI is 19.9 µM in the test on SK-MEL-5 melanoma; greater than 100 µM in the test with UACC-257 melanoma; 92 µM with SK-MEL-2 melanoma; 13.4 µM in the test with NCI-H522 lung; 8.28 µM in the test on DMS 114 small cell lung; 25.6 µM with CAKI-1 renal. The concentration for total growth inhibition (TGI) amounted to 10.5 µM in the test with MOLT-4 leukemia, 40.4 µM with OVCAR-8 ovarian, 4.68 µM in the test on NCI-H23 lung and 7.47 µM with SF-295 CNS.

Broadly, the TGI is the concentration giving total growth inhibition. A low value points to greater sensitivity of the cells.

The values above are taken from PubChem BioAssay (NCI).
